This is an account of results in patent US8772307B2, “Substituted spiro compounds and their use for producing pain-relief medicaments” (Gruenenthal GmbH, priority 2005, dated 2014).

SMILES strings stand for the structures.

The target in data set [1] is T1, rat-species vanilloid receptor 1 (VR1/TRPV1) (Rattus norvegicus, UniProt O35433).
T1 construct: endogenous in cells; host or cells: primary cells dissociated from rat dorsal root ganglia (DRG)
Description: Functional testing on vanilloid receptor 1 (VR1/TRPV1): FLIPR Ca2+ inflow assay in rat dorsal root ganglia cells (% activation / % inhibition vs capsaicin). Type of data set: cell-based. Particulars: for inhibition at 10 µM: inhibition compared to 10 μM CP (capsaicin); for activation at 10 µM: stimulation compared to 10 μM CP (capsaicin). The method, boiled down:
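Rat dorsal root ganglion cells, dissociated with collagenase and trypsin, were plated at 3×10^5/mL on laminin-coated plates in NGF-containing HAMS F12 and cultured 2-3 days at 37° C. Ca2+ inflow read by Fluo-4 fluorescence on FLIPR; test compounds at 10 μM referenced to 10 μM capsaicin.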

The target in another data set is T2, vanilloid receptor (VR1) (Homo sapiens, UniProt Q8NER1).
T2 construct: expressed in transfected cells; host or cells: CHO K1 cells (ECACC), stably transfected
T2 sequence (Q8NER1 whole entry): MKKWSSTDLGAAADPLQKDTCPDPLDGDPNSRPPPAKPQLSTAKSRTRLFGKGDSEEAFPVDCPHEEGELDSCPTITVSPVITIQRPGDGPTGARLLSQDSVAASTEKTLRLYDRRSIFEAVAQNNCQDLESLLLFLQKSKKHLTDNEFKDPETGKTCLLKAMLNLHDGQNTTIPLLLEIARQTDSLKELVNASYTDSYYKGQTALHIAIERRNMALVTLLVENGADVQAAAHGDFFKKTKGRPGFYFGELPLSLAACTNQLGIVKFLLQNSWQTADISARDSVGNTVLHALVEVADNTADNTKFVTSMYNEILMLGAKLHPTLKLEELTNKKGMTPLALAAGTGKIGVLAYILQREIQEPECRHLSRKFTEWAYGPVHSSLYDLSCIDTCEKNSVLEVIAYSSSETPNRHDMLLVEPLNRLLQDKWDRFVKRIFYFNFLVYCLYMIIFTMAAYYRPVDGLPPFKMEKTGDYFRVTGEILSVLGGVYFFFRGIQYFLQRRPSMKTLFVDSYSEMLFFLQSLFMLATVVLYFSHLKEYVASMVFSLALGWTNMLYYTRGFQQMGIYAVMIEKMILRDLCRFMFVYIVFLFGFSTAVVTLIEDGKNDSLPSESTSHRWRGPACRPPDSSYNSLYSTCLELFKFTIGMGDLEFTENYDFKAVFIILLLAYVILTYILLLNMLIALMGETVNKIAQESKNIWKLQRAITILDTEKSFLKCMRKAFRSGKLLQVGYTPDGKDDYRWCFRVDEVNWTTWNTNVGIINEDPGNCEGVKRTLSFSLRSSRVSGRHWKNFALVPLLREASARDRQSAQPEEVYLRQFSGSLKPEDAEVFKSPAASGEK
Description: Functional testing on vanilloid receptor (VR1): FLIPR Ca2+ inflow assay in CHO K1 cells stably transfected with the VR1 gene. In kind it is cell-based. To be noted: for inhibition at 10 µM: CHO-K1, inhibition compared to 10 μM CP (capsaicin); for activation at 10 µM: CHO-K1, stimulation compared to 10 μM CP (capsaicin). In outline:
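CHO K1 cells stably expressing VR1, loaded with Fluo-4 (2 μM, 30 min, 37° C); peak Ca²⁺ fluorescence read on FLIPR. Compound (10 μM) added first, agonism as % of 10 μM capsaicin signal; after 5 min, 100 nM capsaicin added, % inhibition calculated relative to maximal inhibition with 10 μM capsaicin.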

T1 sequence (O35433 whole entry): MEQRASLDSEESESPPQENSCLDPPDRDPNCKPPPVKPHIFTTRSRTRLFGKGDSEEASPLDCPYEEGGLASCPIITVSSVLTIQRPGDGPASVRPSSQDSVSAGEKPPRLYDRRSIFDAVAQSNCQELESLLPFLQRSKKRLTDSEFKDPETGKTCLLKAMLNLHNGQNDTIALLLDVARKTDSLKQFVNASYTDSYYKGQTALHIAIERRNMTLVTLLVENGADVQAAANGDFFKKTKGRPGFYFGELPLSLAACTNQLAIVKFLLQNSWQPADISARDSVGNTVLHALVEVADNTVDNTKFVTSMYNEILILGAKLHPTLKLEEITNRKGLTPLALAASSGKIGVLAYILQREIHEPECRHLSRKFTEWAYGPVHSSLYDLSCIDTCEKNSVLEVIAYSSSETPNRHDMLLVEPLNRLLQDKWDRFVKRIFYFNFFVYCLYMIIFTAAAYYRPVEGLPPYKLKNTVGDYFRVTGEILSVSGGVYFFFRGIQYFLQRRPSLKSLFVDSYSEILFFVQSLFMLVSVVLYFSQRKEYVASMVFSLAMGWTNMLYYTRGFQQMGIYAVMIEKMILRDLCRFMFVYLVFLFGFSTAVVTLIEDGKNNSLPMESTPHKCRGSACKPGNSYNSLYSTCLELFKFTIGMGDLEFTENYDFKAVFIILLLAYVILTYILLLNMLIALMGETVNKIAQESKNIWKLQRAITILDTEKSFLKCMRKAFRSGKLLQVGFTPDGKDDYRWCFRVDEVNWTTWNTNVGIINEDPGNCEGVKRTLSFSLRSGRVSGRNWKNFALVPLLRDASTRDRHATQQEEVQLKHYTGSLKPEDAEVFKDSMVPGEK

The term melting point denotes the temperature, or range, at which the solid turns liquid. In turn, `CC(C)(C)c1ccc2[nH]c(N3CCC4(CC3)CC(c3ccccc3)=NO4)nc2c1` [Compound 379, 8-(5-tert-butyl-1H-benzimidazol-2-yl)-3-phenyl-1-oxa-2,8-diazaspiro[4.5]dec-2-ene] yielded a melting point of 230 to 236 °C.

The term inhibition denotes the change of the read-out against control, counted positive when it falls. Consider `COc1cccc(C2=NOC3(CCN(C(=O)Nc4ccc(Cl)cc4)CC3)C2)c1` [Compound 39, 3-(3-methoxyphenyl)-1-oxa-2,8-diazaspiro[4.5]dec-2-ene-8-carboxylic acid-(4-chlorophenyl)amide], for which the inhibition at 10 µM in data set [1] is 74%; against vanilloid receptor (VR1), 25%. The activation at 10 µM in data set [1] is 0.11%; at vanilloid receptor (VR1) it was -0.14%.

In the case of `COc1cccc(C2=NOC3(CCN(C(=O)Nc4cc(C(F)(F)F)ccc4Cl)CC3)C2)c1` [Compound 221, 3-(3-methoxyphenyl)-1-oxa-2,8-diazaspiro[4.5]dec-2-ene-8-carboxylic acid-(2-chloro-5-trifluoromethylphenyl)amide], the inhibition at 10 µM is 72.8% in data set [1] and -11.6% on vanilloid receptor (VR1). Moreover, the activation at 10 µM in data set [1] was 0.95%; at vanilloid receptor (VR1), -0.04%.

On to `CC(C)(C)c1ccc(NC(=O)N2CCC3(CC2)CC(c2ncccc2Cl)=NO3)cc1` [Compound 329, 3-(3-chloropyridin-2-yl)-1-oxa-2,8-diazaspiro[4.5]dec-2-ene-8-carboxylic acid-(4-tert-butylphenyl)amide], for which, in data set [1], the inhibition at 10 µM was found to be 96% and the activation at 10 µM is 71%. In addition, at vanilloid receptor (VR1), the inhibition at 10 µM was determined as 37% and the activation at 10 µM amounted to 38%.

Consider `COc1cccc(C2=NOC3(CCN(C(=O)/C=C/c4ccc(C(F)(F)F)nc4)CC3)C2)c1` [Compound 362, (E)-1-(3-(3-methoxyphenyl)-1-oxa-2,8-diazaspiro[4.5]dec-2-en-8-yl)-3-(6-(trifluoromethyl)pyridin-3-yl)prop-2-en-1-one], for which, in data set [1], the inhibition at 10 µM was found to be 44% and the activation at 10 µM was -1%. At vanilloid receptor (VR1), the inhibition at 10 µM was 19% and the activation at 10 µM was 0%.
